Data as given in patent publication US20080096967A1, “Formulations for Injection of Catecholic Butanes, Including Ndga Compounds, Into Animals” (priority 2005, published 2008).

Experiments:
[1] = 40 mg/mL M4N/PEG 300 stability: RP-HPLC analysis; assay type: physicochemical
Procedure: The stability of 40 mg/mL M4N dissolved in 100% PEG 300 was evaluated up to 24 hours incubation at 30° C., 45° C. and 60° C. A stock 40 mg/mL M4N in PEG 300 was prepared at 60° C., following the procedure set forth in Example 17. Subsequently, aliquots were removed and incubated at the appropriate temperature. Samples were rotated at 450 rpm during the entire course of incubation. Visual observations and RP-HPLC data were collected throughout. […] The formation of crystals coincided with a loss of soluble M4N (Table 30). The 40 mg/mL M4N/PEG 300 samples incubated at 45° C. and 60° C. were stable after 24 hours incubation as assessed by visual observations and RP-HPLC analysis (Tables 29 and 30).

[2] = Stability of M4N formulations at 4° C. and on centrifugation; assay type: physicochemical
Procedure: All formulations withstand 4° C. for 24 hr and 5 min. centrifugation at 5000 rpm without forming visible precipitates. The formulation containing 50% PEG 300, 20% HP-β-CD, 12.5 mg/mL M4N stock solution withstands 4° C. for at least 4 months. Dilutions of the same stock made in 1:1 or 1:2 dilutions also withstand 4° C. for at least 4 months.

[3] = M4N stability in HP-β-CD/PEG 300 buffer solutions at 60° C. (RP-HPLC, pH); assay type: physicochemical; details: for M4N concentration (stability): 25% PEG300
Procedure: The stability of 10 mg/mL M4N (prepared in a ratio of 75:25 40% HP-β-CD: 40 mg/mL M4N PEG 300) in 15 mM buffer solutions was evaluated following incubation at 60° C.
2.0 g HP-β-CD was weighed into 5 mL volumetric flasks on an OHAUS Analytical Plus Balance. 1 mL of a 100 mM buffer solution was added to each flask. Each sample was q.s. to 5 mL with WFI.
750 μL 40% HP-β-CD buffered solution was placed in 1.5 mL polypropylene microtubes. […] After gentle inversion of the sample tubes, the pH of each solution was measured using a Orion, Model 420A pH meter. An initial aliquot was removed for RP-HPLC analysis. Test samples were then placed in a Precision 60° C. incubator. The M4N stability was evaluated by RP-HPLC. At each time point, the samples were centrifuged for 2 minutes at 13,000 rpm to pellet any solid M4N.

[4] = Compatibility of IV tubing for delivery of M4N (visual inspection and HPLC); details: PTFE and fluorelastomer, polypropylene, FEP, polyethylene, platinum cured silicone (small size)
Procedure: In this experiment, various types of tubing were tested for compatibility and for optimizing intravenous delivery of M4N. The tests on compatibility were based on visual inspection and HPLC (high pressure liquid chromatography) analysis.
The visual inspection was conducted as follows: About 5 mL of a formulation to be tested (“formulated material”) were passed through a tubing of about 20 cm in length. The formulated material was kept inside the tube for about 24 hr at room temperature (25° C.). The formulated material was then circulated several times (about 5 times, for example) through the tubing and was collected in a beaker or a collection tube. The formulated material was carefully inspected for precipitates or particulates present, including by holding the beaker or collection tube against a white background followed by a dark background.
The compatibility test using HPLC analysis varied in the methodology depending on the tubing being tested, the length of time and the purpose of the tubing. This test measured the amount of M4N in solution before and after circulation through different tubing.

For `COc1ccc(C[C@@H](C)[C@@H](C)Cc2ccc(OC)c(OC)c2)cc1OC` [Formulation M4N, meso-1,4-bis(3,4-dimethoxyphenyl)-2,3-dimethylbutane], the impurities peaks ([1]; 40 mg/mL M4N/PEG 300, 30° C., 45° C. and 60° C.) was “No changes”, the “loss in soluble M4N” value ([1]; 40 mg/mL M4N/PEG 300, 24 hours at 30° C.) was over 5% and the “withstand 4° C.” value ([2]; 1:1 or 1:2 dilutions of the 50% PEG 300, 20% HP-β-CD, 12.5 mg/mL M4N stock) was “at least 4 months”. For the same compound, the “withstands 4° C.” value ([2]; 50% PEG 300, 20% HP-β-CD, 12.5 mg/mL M4N stock solution) was “at least 4 months”, the “change in concentration of M4N solutions” value ([3]; 10 mg/mL M4N in HP-β-CD/PEG 300, 15 mM buffers, 14 day incubation at 60° C.) was “slight decrease” and the “M4N concentration (stability)” value ([3]; 15 mM Acetate, pH 5, 30% HP-β-CD, 0 days at 60° C.) was 10.6 mg/mL. The “M4N concentration (stability)” value ([3]; 15 mM Acetate, pH 5, 30% HP-β-CD, 2 days at 60° C.) was 10.2 mg/mL, the “M4N concentration (stability)” value ([3]; 15 mM Acetate, pH 5, 30% HP-β-CD, 6 days at 60° C.) was 9.6 mg/mL and the “M4N concentration (stability)” value ([3]; 15 mM Acetate, pH 5, 30% HP-β-CD, 10 days at 60° C.) was 9.7 mg/mL. For the same compound, the “M4N concentration (stability)” value ([3]; 15 mM Acetate, pH 5, 30% HP-β-CD, 14 days at 60° C.) was 9.6 mg/mL, the “M4N concentration (stability)” value ([3]; 15 mM Acetate, pH 6, 30% HP-β-CD, 0 days at 60° C.) was 10.5 mg/mL and the “M4N concentration (stability)” value ([3]; 15 mM Acetate, pH 6, 30% HP-β-CD, 2 days at 60° C.) was 10.1 mg/mL. For the same compound, the “M4N concentration (stability)” value ([3]; 15 mM Acetate, pH 6, 30% HP-β-CD, 6 days at 60° C.) was 9.7 mg/mL, the “M4N concentration (stability)” value ([3]; 15 mM Acetate, pH 6, 30% HP-β-CD, 10 days at 60° C.) was 9.7 mg/mL and the “M4N concentration (stability)” value ([3]; 15 mM Acetate, pH 6, 30% HP-β-CD, 14 days at 60° C.) was 9.6 mg/mL. For the same compound, the “M4N concentration (stability)” value ([3]; 15 mM Borate, pH 10, 30% HP-β-CD, 0 days at 60° C.) was 10.5 mg/mL, the “M4N concentration (stability)” value ([3]; 15 mM Borate, pH 10, 30% HP-β-CD, 2 days at 60° C.) was 10.1 mg/mL and the “M4N concentration (stability)” value ([3]; 15 mM Borate, pH 10, 30% HP-β-CD, 6 days at 60° C.) was 9.7 mg/mL. For the same compound, the “M4N concentration (stability)” value ([3]; 15 mM Borate, pH 10, 30% HP-β-CD, 10 days at 60° C.) was 9.6 mg/mL, the “M4N concentration (stability)” value ([3]; 15 mM Borate, pH 10, 30% HP-β-CD, 14 days at 60° C.) was 9.6 mg/mL and the “M4N concentration (stability)” value ([3]; 15 mM Borate, pH 11, 30% HP-β-CD, 0 days at 60° C.) was 10.5 mg/mL. For the same compound, the “M4N concentration (stability)” value ([3]; 15 mM Borate, pH 11, 30% HP-β-CD, 2 days at 60° C.) was 10.3 mg/mL, the “M4N concentration (stability)” value ([3]; 15 mM Borate, pH 11, 30% HP-β-CD, 6 days at 60° C.) was 9.8 mg/mL and the “M4N concentration (stability)” value ([3]; 15 mM Borate, pH 11, 30% HP-β-CD, 10 days at 60° C.) was 9.5 mg/mL. For the same compound, the “M4N concentration (stability)” value ([3]; 15 mM Borate, pH 11, 30% HP-β-CD, 14 days at 60° C.) was 9.4 mg/mL, the “M4N concentration (stability)” value ([3]; 15 mM Phosphate, pH 3, 30% HP-β-CD, 0 days at 60° C.) was 10.3 mg/mL and the “M4N concentration (stability)” value ([3]; 15 mM Phosphate, pH 3, 30% HP-β-CD, 2 days at 60° C.) was 10.1 mg/mL. The “M4N concentration (stability)” value ([3]; 15 mM Phosphate, pH 3, 30% HP-β-CD, 6 days at 60° C.) was 9.6 mg/mL, the “M4N concentration (stability)” value ([3]; 15 mM Phosphate, pH 3, 30% HP-β-CD, 10 days at 60° C.) was 9.7 mg/mL and the “M4N concentration (stability)” value ([3]; 15 mM Phosphate, pH 3, 30% HP-β-CD, 14 days at 60° C.) was 9.6 mg/mL. For the same compound, the “M4N concentration (stability)” value ([3]; 15 mM Phosphate, pH 4, 30% HP-β-CD, 0 days at 60° C.) was 10.5 mg/mL, the “M4N concentration (stability)” value ([3]; 15 mM Phosphate, pH 4, 30% HP-β-CD, 2 days at 60° C.) was 10.1 mg/mL and the “M4N concentration (stability)” value ([3]; 15 mM Phosphate, pH 4, 30% HP-β-CD, 6 days at 60° C.) was 9.6 mg/mL. For the same compound, the “M4N concentration (stability)” value ([3]; 15 mM Phosphate, pH 4, 30% HP-β-CD, 10 days at 60° C.) was 9.7 mg/mL, the “M4N concentration (stability)” value ([3]; 15 mM Phosphate, pH 4, 30% HP-β-CD, 14 days at 60° C.) was 9.6 mg/mL and the “M4N concentration (stability)” value ([3]; 15 mM Phosphate, pH 7, 30% HP-β-CD, 0 days at 60° C.) was 10.5 mg/mL. The “M4N concentration (stability)” value ([3]; 15 mM Phosphate, pH 7, 30% HP-β-CD, 2 days at 60° C.) was 10.3 mg/mL, the “M4N concentration (stability)” value ([3]; 15 mM Phosphate, pH 7, 30% HP-β-CD, 6 days at 60° C.) was 9.7 mg/mL and the “M4N concentration (stability)” value ([3]; 15 mM Phosphate, pH 7, 30% HP-β-CD, 10 days at 60° C.) was 9.7 mg/mL. For the same compound, the “M4N concentration (stability)” value ([3]; 15 mM Phosphate, pH 7, 30% HP-β-CD, 14 days at 60° C.) was 9.7 mg/mL, the “M4N concentration (stability)” value ([3]; 15 mM Phosphate, pH 8, 30% HP-β-CD, 0 days at 60° C.) was 10.6 mg/mL and the “M4N concentration (stability)” value ([3]; 15 mM Phosphate, pH 8, 30% HP-β-CD, 2 days at 60° C.) was 10.4 mg/mL. The “M4N concentration (stability)” value ([3]; 15 mM Phosphate, pH 8, 30% HP-β-CD, 6 days at 60° C.) was 9.7 mg/mL, the “M4N concentration (stability)” value ([3]; 15 mM Phosphate, pH 8, 30% HP-β-CD, 10 days at 60° C.) was 9.8 mg/mL and the “M4N concentration (stability)” value ([3]; 15 mM Phosphate, pH 8, 30% HP-β-CD, 14 days at 60° C.) was 9.6 mg/mL. The “M4N concentration (stability)” value ([3]; 15 mM Phosphate, pH 9, 30% HP-β-CD, 0 days at 60° C.) was 10.4 mg/mL, the “M4N concentration (stability)” value ([3]; 15 mM Phosphate, pH 9, 30% HP-β-CD, 2 days at 60° C.) was 10.2 mg/mL and the “M4N concentration (stability)” value ([3]; 15 mM Phosphate, pH 9, 30% HP-β-CD, 6 days at 60° C.) was 9.7 mg/mL. The “M4N concentration (stability)” value ([3]; 15 mM Phosphate, pH 9, 30% HP-β-CD, 10 days at 60° C.) was 9.8 mg/mL, the “M4N concentration (stability)” value ([3]; 15 mM Phosphate, pH 9, 30% HP-β-CD, 14 days at 60° C.) was 9.7 mg/mL and the “M4N impurities, share of total peak area” value ([3]; 14 day incubation at 60° C.) was “less than 0.1%”. For the same compound, the “apparent sample pH during the incubation period” value ([3]; 14 days at 60° C.) was “Little if any changes”, the “M4N concentration (stability)” value ([3]; WFI, 30% HP-β-CD, 0 days at 60° C.) was 10.4 mg/mL and the “M4N concentration (stability)” value ([3]; WFI, 30% HP-β-CD, 2 days at 60° C.) was 10.1 mg/mL. The “M4N concentration (stability)” value ([3]; WFI, 30% HP-β-CD, 6 days at 60° C.) was 9.9 mg/mL, the “M4N concentration (stability)” value ([3]; WFI, 30% HP-β-CD, 10 days at 60° C.) was 9.7 mg/mL and the “M4N concentration (stability)” value ([3]; WFI, 30% HP-β-CD, 14 days at 60° C.) was 9.6 mg/mL. The “compatibility of tubing for delivery of M4N (threshold about 90% of M4N remaining in solution)” value [4] was “compatible”.
